Test system: 349418-098-R-PDC complex spheroid viability
Assay: Anticancer human tumor 349418-098-R-PDC patient-derived lung adenocarcinoma cell line growth inhibition
Conditions: for IC50: curve of first compound; for viability, T/C: stronger effect = lower value; active = viability on the fitted dose curve at most 10% of control; inactive = the rest
Description: Multicellular complex tumor spheroid response to LSD1 Inhibitor Iadademstat in combination with a variety of drugs and investigational agents in selected tumor cell lines
The current study was undertaken to assess response to LSD1 inhibitors in combination with standard-of-care drugs and investigational agents in solid tumor complex spheroid models as well as in the K-562 leukemia. Complex spheroids include a stromal component modeled by human endothelial cells (HUVEC) and fibroblasts modeled by human mesenchymal stem cells (MSCs). The concentration ranges selected for each drug and investigational agent were based upon clinically achievable concentrations if the clinical Cmax of the agent was known.
Compounds. The drugs and investigational agents used in this study are listed on Table 1. All of the agents used, including staurosporine (NSC755774) and gemcitabine (NSC613327), were obtained from the Developmental Therapeutics Program, NCI. FDA-approved anticancer drugs are available from the NCI at http://dtp.nci.nih.gov/branches/dscb/oncology_drugset_explanation.html. Drugs and investigational agents were >95% pure by proton nuclear magnetic resonance (NMR) and liquid chromatography/mass spectrometry (LC/MS). Stock solutions were prepared at 400x in DMSO, stored at -70 degrees C, and diluted in fresh medium prior to their use. The final concentration of DMSO in cell culture wells never exceeded 0.25% (v/v). The FDA-approved anticancer drug set is available from the Developmental Therapeutics Program at https://dtp.cancer.gov/organization/dscb/obtaining/available_plates.htm. All drugs and investigational agents were tested over a range starting from a high concentration at or near the clinical Cmax and decreasing in half-log increments. If the clinical Cmax for an agent had not been determined, the highest concentration tested was 10 microM.
Cell Lines. The patient-derived cancer cell (PDC) lines: 292921-168-R-J2-PDC, K24384-001-R-PDC, and 521955-158-R2-J5-PDC pancreatic carcinomas, 556581-035-R-J1 ovarian carcinoma, 324938-238-R-J1-PDC, 855422-203-R-J1-PDC and 883617-216-R-J1-PDC urothelial bladder carcinomas, 743489-274-T-PDC renal cell carcinoma, 138582-R-J1 Merkel cell tumor, K60290-347-R-J1 and K57222-313-R-J1-PDC glioblastomas, 653999-131-R-J2-PDC, LG0703-F948-PDC, and 349418-098-R-PDC non-small cell lung carcinomas, 885512-296-R-J2-PDC, 171881-019-R-J1-PDC breast carcinomas and 186277-243-T-J2-PDC and 233499-124-R-J2-PDC colon carcinomas were obtained from the NCI Patient-Derived Models Repository (PDMR, https://pdmr.cancer.gov). The established cell lines NCI/ADR-RES (RRID:CVCL_14520 and OVCAR-5 (RRID:CVCL_1628) ovarian carcinomas, 786-O (RRID:CVCL_1051) and A498 (RRID:CVCL_A498) renal cell carcinoma, NCI-H211 (ATCC, cat. CRL-5824; RRID:CVCL_1529), NCI-H196 (ATCC, cat. CRL-5823, RRID:CVCL_1509), SW 1271 (ATCC, cat. CRL-2177, RRID:CVCL_1716) and NCI-H1876 (ATCC, cat. CRL-5902, RRID:CVCL_1503) small cell lung carcinomas, MDA-MB-231 (RRID:CVCL_0062) and MDA-MB-468 (RRID:CVCL_0419)breast carcinomas (10-12). Pooled donor human umbilical vein endothelial cells (HUVEC, Lonza, cat. CC-2519) and human mesenchymal stem cells (hMSC, Lonza, cat. PT-2501) were purchased from Lonza (Walkersville, MD).
Cell Culture. All cells were maintained in an incubator at 37 degrees C and 5% CO2 with 95% humidity. The PDC lines were cultured according to standard operating procedures established by the NCI PDMR (https://pdmr.cancer.gov). Briefly all PDCs were thawed and cultured in Matrigel-coated flasks prepared with a working solution of 1X Ham's F-12 nutrient mix, without supplementation (Invitrogen, Waltham, MA, cat. 11765054), 100 U/mL penicillin-streptomycin (Invitrogen, cat. 15140122), and 2.5% Matrigel (Corning Inc., Corning, NY, cat. 354248) for the first three passages. […]

[1] = second compound 0.1 µM, first compound 0.000949 µM
[2] = second compound 0.1 µM, first compound 0.003 µM
[3] = second compound 0.1 µM, first compound 0.00949 µM
[4] = second compound 0.1 µM, first compound 0.03 µM
[5] = second compound 0.1 µM, first compound 0.0949 µM
[6] = second compound 0.1 µM, first compound 0.3 µM
[7] = second compound 0.316 µM, first compound 0.000949 µM
[8] = second compound 0.316 µM, first compound 0.003 µM
[9] = second compound 0.316 µM, first compound 0.00949 µM
[10] = second compound 0.316 µM, first compound 0.03 µM
[11] = second compound 0.316 µM, first compound 0.0949 µM
[12] = second compound 0.316 µM, first compound 0.3 µM
[13] = second compound 1 µM, first compound 0.000949 µM
[14] = second compound 1 µM, first compound 0.003 µM
[15] = second compound 1 µM, first compound 0.00949 µM
[16] = second compound 1 µM, first compound 0.03 µM
[17] = second compound 1 µM, first compound 0.0949 µM
[18] = second compound 1 µM, first compound 0.3 µM
[19] = second compound 3.16 µM, first compound 0.000949 µM
[20] = second compound 3.16 µM, first compound 0.003 µM
[21] = second compound 3.16 µM, first compound 0.00949 µM
[22] = second compound 3.16 µM, first compound 0.03 µM
[23] = second compound 3.16 µM, first compound 0.0949 µM
[24] = second compound 3.16 µM, first compound 0.3 µM
[25] = second compound 10 µM, first compound 0.000949 µM
[26] = second compound 10 µM, first compound 0.003 µM
[27] = second compound 10 µM, first compound 0.00949 µM
[28] = second compound 10 µM, first compound 0.03 µM
[29] = second compound 10 µM, first compound 0.0949 µM
[30] = second compound 10 µM, first compound 0.3 µM
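Note: spheroids exposed to agents for seven days before readout.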

CCc1c2c(nc3ccc(O)cc13)-c1cc3c(c(=O)n1C2)COC(=O)[C@]3(O)CC + NC1CC1c1ccc(-c2cccc(O)c2)cc1
active: viability, T/C [1] 3.35% | viability, T/C [2] 2.46% | viability, T/C [3] 1.32% | viability, T/C [4] 1.41% | viability, T/C [5] 1.92% | viability, T/C [6] 1.96% | viability, T/C [7] 3.19% | viability, T/C [8] 2.09% | viability, T/C [9] 1.26% | viability, T/C [10] 1.31% | viability, T/C [11] 1.59% | viability, T/C [12] 1.98% | viability, T/C [13] 3.23% | viability, T/C [14] 2.09% | viability, T/C [15] 1.23% | viability, T/C [16] 1.48% | viability, T/C [17] 1.67% | viability, T/C [18] 1.92% | viability, T/C [19] 3.45% | viability, T/C [20] 2.17% | viability, T/C [21] 1.37% | viability, T/C [22] 1.52% | viability, T/C [23] 1.8% | viability, T/C [24] 1.56% | viability, T/C [25] 3.42% | viability, T/C [26] 1.99% | viability, T/C [27] 1.52% | viability, T/C [28] 1.31% | viability, T/C [29] 1.59% | viability, T/C [30] 1.47%
< 0.949 nM: IC50 (second compound 0.1 µM) | IC50 (second compound 0.316 µM) | IC50 (second compound 1 µM) | IC50 (second compound 3.16 µM) | IC50 (second compound 10 µM)

Nc1ccn(C2OC(CO)C(O)C2(F)F)c(=O)n1 (stereo not given) + NC1CC1c1ccc(-c2cccc(O)c2)cc1
inactive: viability, T/C [1] 13.3% | viability, T/C [7] 14.1% | viability, T/C [13] 15.9% | viability, T/C [19] 18.6% | viability, T/C [25] 17.2%
active: viability, T/C [2] 4.68% | viability, T/C [3] 4.34% | viability, T/C [4] 4.35% | viability, T/C [5] 3.93% | viability, T/C [6] 4.06% | viability, T/C [8] 3.77% | viability, T/C [9] 3.96% | viability, T/C [10] 3.75% | viability, T/C [11] 3.4% | viability, T/C [12] 3.31% | viability, T/C [14] 4.07% | viability, T/C [15] 4.17% | viability, T/C [16] 3.99% | viability, T/C [17] 3.7% | viability, T/C [18] 3.81% | viability, T/C [20] 4.9% | viability, T/C [21] 4.67% | viability, T/C [22] 4.52% | viability, T/C [23] 3.81% | viability, T/C [24] 3.95% | viability, T/C [26] 4.98% | viability, T/C [27] 5.12% | viability, T/C [28] 4.52% | viability, T/C [29] 4.65% | viability, T/C [30] 4.28%
< 0.949 nM: IC50 (second compound 0.1 µM) | IC50 (second compound 0.316 µM) | IC50 (second compound 1 µM) | IC50 (second compound 3.16 µM) | IC50 (second compound 10 µM)

— PubChem BioAssay AID1918936 (Molecular Pharmacology Branch, DTP, NCI, 2023)
